{
  "source": "paper PMC10221314",
  "about": "(Pharmaceuticals, 2023)",
  "key": {"FXR": {"molecular_target": "T1, FXR (Homo sapiens, UniProt Q96RI1)", "T1 construct": "a fusion plasmid of Gal4 DBD-NR-LBD, which included PPARα, PPARβ, PPARγ, RXRα, RXRβ, RXRγ, LXRα, LXRβ, GPBAR, PXR, and FXR; expressed in transfected cells; host or cells: HEK-293T", "T1 sequence (Q96RI1 262-486 limits assumed)": "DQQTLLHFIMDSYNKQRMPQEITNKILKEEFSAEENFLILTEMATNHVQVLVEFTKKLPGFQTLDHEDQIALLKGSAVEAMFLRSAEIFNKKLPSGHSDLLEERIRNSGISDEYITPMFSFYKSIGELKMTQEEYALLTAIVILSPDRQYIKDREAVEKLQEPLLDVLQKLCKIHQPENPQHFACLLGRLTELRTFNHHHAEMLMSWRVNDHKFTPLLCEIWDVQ", "test": "NR selectivity one-hybrid assay in HEK-293T cells (FXR)", "assay_type": "cell-based", "details": "FXR agonist CDCA (50 μM)", "method": "(§1) To assess the compound’s specificity, the mammalian one-hybrid assay was conducted. In this assay, HEK-293T cells were co-transfected with a fusion plasmid of Gal4 DBD-NR LBD (comprising RXRα, RXRβ, RXRγ, PPARα, PPARβ, PPARγ, LXRα, LXRβ, GPBAR, and PXR) and the UAS-TK-Luc reporter, followed by treatment with various concentrations of the compound. The positive control consisted of the corresponding nuclear receptor agonist, and the concentration used in the experiment was set to the EC50 of the agonist.\n(§2) Figure 3 Compound 10b selectively antagonized FXR. The impact of compound 10b on various NRs was evaluated using a […] one-hybrid assay in HEK-293T cells. The cells were transiently co-transfected with a fusion plasmid of Gal4 DBD-NR-LBD, which included PPARα, PPARβ, PPARγ, RXRα, RXRβ, RXRγ, LXRα, LXRβ, GPBAR, PXR, and FXR, in combination with the UAS-TK-Luc reporter. […] The values are expressed as the means ± SE of three independent experiments. *: p < 0.05 vs. RA (relative agonist)."}, "[1]": {"test_system": "RXRα, RXRβ, RXRγ, LXRα, LXRβ, PXR, PPARα, PPARβ, PPARγ, and GPBAR", "test": "NR selectivity one-hybrid assay in HEK-293T cells (panel of metabolic NRs)", "assay_type": "cell-based", "method": "as §1, §2"}, "[2]": {"test": "Stability of compound 10b in mouse plasma at 37 °C (HPLC)", "assay_type": "in vitro ADME", "design": "recovery at 6 h / recovery at 48 h: dose or concentration left out as unconfirmed", "details": "for Mass of 10b extracted from mouse plasma: theoretical mass 38.5 μg", "method": "3. Stability test of compound 10b\nTo preliminarily determine the stability of compound 10b in a biological environment, an in vitro experimental verification method was employed. The trace compound was dissolved in mouse plasma to simulate the biological environment.\nSamples were taken at different time intervals at 37 °C, and the content of the compound was determined by HPLC C18 analytical column. The peak area of the absorption at 220 nm was utilized for content calculation.\nThe standard curve shown in Fig. S1 can be plotted using the peak area and the mass of compound 10b in the corresponding volume of the solution. The relationship is y = 23.253x+ 100.67 (R2 = 0.9994), which meets linearity requirements and can be used for subsequent operations.\nFig. S1. The relationship curve between the absorption peak area and mass of compound 10b at 220 […]\nSubsequently, a mouse with a body weight of 20 g and blood volume of 1 mL was calculated based on the subsequent in vivo experiment’s dosage (100 mg·Kg-1).\nAssuming 100% absorption, the converted plasma drug concentration is 2 mg·mL -1.\nBased on the calculation, 0.5 mg of 10b was added to […] of mouse plasma to prepare a mixed solution. The plasma was then processed after 1h, 6h, 12 h, 24 h, and 48 h, respectively. The compound content in the sample was compared to the initial content with UV absorption and retention time (t = 6.5 min). […]\nsignificant decrease in the content of 10b was observed between 0 to 48 hours, […]"}, "BDL rats": {"test_system": "BDL rats", "test": "Bile duct ligation (BDL) rat model", "assay_type": "in vivo", "details": "100 mg·kg-1 oral, 14 days", "method": "Cells and liver tissue samples were subjected to RNA extraction and purification, followed by reverse transcription of equal amounts of total RNA into […] using a Transcriptor First Strand cDNA Synthesis Kit (Roche). The relative expression levels of the target gene were determined using TaqMan probe/primers with an ABI Q3 quantitative real-time PCR system, while GAPDH/Gapdh was utilized as an internal control for mRNA expression. The fold change in the expression of the target mRNA was calculated using Equation 2^−ΔΔCt.\nThe study involved 24 rats that were randomly assigned to 1 of 3 groups, including sham, BDL-N.S., and BDL-10b-100mg·kg^−1, ensuring 8 animals per group using Research Randomizer (RRID: SCR_008563). Of the 24 rats, 16 underwent BDL surgery, wherein the choledochal duct was ligated with surgical sutures after administering isoflurane anesthesia. After 24 h, the BDL rats were randomly divided into […] and received daily gavages of either normal saline (BDL-NS group) or 100 mg·kg^−1 of compound 10b suspended in 0.5% sodium carboxymethylcellulose solution (BDL-10b groups) for 14 days. A healthy control group was established with eight rats undergoing sham surgery. Bodyweights were measured daily, and blood samples were collected from the abdominal aorta after an overnight fast. Euthanasia was performed using isoflurane, following which bile was collected using a syringe, and liver tissue samples were collected. Some of the samples were fixed with 4% paraformaldehyde for subsequent histological examination, while others were stored at −80 °C for further analysis.\nKits purchased from Zhongsheng Beikong Biotechnology (Beijing, China) were used to measure the serum concentrations of alanine aminotransferase, aspartate aminotransferase, alkaline phosphatase, γ-glutamyl transpeptidase, total cholesterol, total triglyceride, low-density lipoprotein (LDL), high-density lipoprotein (HDL) cholesterol, lactate dehydrogenase, total bile acid, and total bilirubin. The samples were analyzed on a Hitachi 7100 Analyzer.\nThe liver tissue was fixed with formalin, embedded in paraffin, and sectioned. The sections were stained with H&E, Oil Red, Masson’s, and Sirius Red. Liver necrosis, inflammation, bile duct proliferation, hepatic steatosis, and lobule inflammation were evaluated on a scale of 1–5 in a blinded manner using a Leica DM1000 microscope. Five randomly selected manifold area fields of vision were used to quantify the red area in each field of vision (eight in each group), which was counted using ImageJ software. The liver hydroxyproline concentration was determined using kits from Nanjing, China, in accordance with the manufacturer’s instructions."}},
  "note": "Entries after “also recorded” stand apart in the source; their conditions may differ.",
  "data": [
    {"smiles": "CC1(C)CCC2(C(=O)O)CCC3(C)C(C(OC(=O)CCC(NC(=O)OC(C)(C)C)C(=O)OC(C)(C)C)CC4C5(C)CCC(O)C(C)(C)C5CCC43C)C2C1", "note": "[Compound 10b, 3β-hydroxy-12β-(4′-((tert-butoxycarbonyl)amide)-5′-(tert-butoxy)-L-glutamte)oxy-13H-olean-28-oic acid]", "values": [
      {"measurement": "antagonistic effects against FXR", "setting": "FXR", "value": "> 90", "unit": "%"},
      {"measurement": "agonistic effect for tested NRs or GPBAR", "setting": "[1]", "value": "no agonistic effect"},
      {"measurement": "recovery at 0 h, 0.0025 mg/mL", "setting": "[2]; 0 h, read-out: Recovery rate", "value": 68, "unit": "%"},
      {"measurement": "Mass of 10b extracted from mouse plasma", "setting": "[2]; 0 h", "value": 26.2, "unit": "µg"},
      {"measurement": "content of 10b in mouse plasma (stability)", "setting": "[2]; 0 to 48 h", "value": "existed stably in mouse plasma; also recorded: remained almost unchanged"},
      {"measurement": "recovery at 1 h, 0.0025 mg/mL", "setting": "[2]; 1 h, read-out: Recovery rate", "value": 70.9, "unit": "%"},
      {"measurement": "Mass of 10b extracted from mouse plasma", "setting": "[2]; 1 h", "value": 27.3, "unit": "µg"},
      {"measurement": "recovery at 6 h", "setting": "[2]; 6 h, read-out: Recovery rate", "value": 75.8, "unit": "%"},
      {"measurement": "Mass of 10b extracted from mouse plasma", "setting": "[2]; 6 h", "value": 29.2, "unit": "µg"},
      {"measurement": "recovery at 12 h, 0.0025 mg/mL", "setting": "[2]; 12 h, read-out: Recovery rate", "value": 63.4, "unit": "%"},
      {"measurement": "Mass of 10b extracted from mouse plasma", "setting": "[2]; 12 h", "value": 24.4, "unit": "µg"},
      {"measurement": "recovery at 24 h, 0.0025 mg/mL", "setting": "[2]; 24 h, read-out: Recovery rate", "value": 68.5, "unit": "%"},
      {"measurement": "Mass of 10b extracted from mouse plasma", "setting": "[2]; 24 h", "value": 26.4, "unit": "µg"},
      {"measurement": "recovery at 48 h", "setting": "[2]; 48 h, read-out: Recovery rate", "value": 76.6, "unit": "%"},
      {"measurement": "Mass of 10b extracted from mouse plasma", "setting": "[2]; 48 h", "value": 29.5, "unit": "µg"},
      {"measurement": "Bile TBA", "setting": "BDL rats", "value": "249.4 ± 103.67", "unit": "µmol/L"},
      {"measurement": "Bile TBiL", "setting": "BDL rats", "value": "5.8 ± 2.46", "unit": "µmol/L"},
      {"measurement": "Serum ALP", "setting": "BDL rats", "value": "391.33±52.42", "unit": "U·L-1"},
      {"measurement": "Serum HDL", "setting": "BDL rats", "value": "0.29 ± 0.06", "unit": "mmol/L"},
      {"measurement": "Serum LDL", "setting": "BDL rats", "value": "1.06 ± 0.22", "unit": "mmol/L"},
      {"measurement": "Serum γ-GT", "setting": "BDL rats", "value": "37.5±6.74", "unit": "U·L-1"},
      {"measurement": "Urine TBA", "setting": "BDL rats", "value": "15.38 ± 5.76", "unit": "µmol/L"},
      {"measurement": "Urine TBiL", "setting": "BDL rats", "value": "5.33 ± 1.50", "unit": "µmol/L"},
      {"measurement": "expression of fibrogenic genes Col1a1, Acta2, Tgfb1, Mmp2, Timp1, Itgav, Ctgf in rat liver (qRT-PCR)", "setting": "BDL rats", "value": "reduced"},
      {"measurement": "liver collagen accumulation (Sirius red staining)", "setting": "BDL rats", "value": "significantly attenuated"},
      {"measurement": "pathological impairments (bile duct hyperplasia, parenchymal necrosis, inflammation; H&E)", "setting": "BDL rats", "value": "substantially reduced"},
      {"measurement": "liver necrosis scores (blinded assessment)", "setting": "BDL rats; vs BDL rats", "value": "significantly lower"}
    ]}
  ]
}
